# In ChEMBL document CHEMBL1909046, “DrugMatrix in vitro pharmacology data”:
# How the values were obtained:
# Adenosine receptor A2a = Adenosine receptor A2a (Homo sapiens, UniProt P29274); assay: DRUGMATRIX: Adenosine A2A radioligand binding (ligand: […]); assay type: cell membranes, HEK293, Membrane; settings: Not Active = under 50% inhibition at 10 µM; for Ki: read-out: Ki
# [1] = biological target: Sodium-dependent dopamine transporter (Homo sapiens, UniProt Q01959); assay: DRUGMATRIX: Dopamine Transporter radioligand binding (ligand: [125I] RTI-55); assay type: cell membranes, CHO-K1, Membrane; settings: cho-k1; Not Active = under 50% inhibition at 10 µM
# [2] = DRUGMATRIX: Platelet-Derived Growth Factor (PDGF) radioligand binding (ligand: [125I] PDGF); assay type: cell-based; settings: nih3t3; Not Active = under 50% inhibition at 10 µM
# Calcitonin receptor = biological target: T1, Calcitonin receptor (Homo sapiens, UniProt P30988); assay type: cell membranes, Membrane; settings: t47d; also: in other assays of this panel Not Active means under 50% inhibition at 10 µM
# T1 sequence (P30988 whole entry): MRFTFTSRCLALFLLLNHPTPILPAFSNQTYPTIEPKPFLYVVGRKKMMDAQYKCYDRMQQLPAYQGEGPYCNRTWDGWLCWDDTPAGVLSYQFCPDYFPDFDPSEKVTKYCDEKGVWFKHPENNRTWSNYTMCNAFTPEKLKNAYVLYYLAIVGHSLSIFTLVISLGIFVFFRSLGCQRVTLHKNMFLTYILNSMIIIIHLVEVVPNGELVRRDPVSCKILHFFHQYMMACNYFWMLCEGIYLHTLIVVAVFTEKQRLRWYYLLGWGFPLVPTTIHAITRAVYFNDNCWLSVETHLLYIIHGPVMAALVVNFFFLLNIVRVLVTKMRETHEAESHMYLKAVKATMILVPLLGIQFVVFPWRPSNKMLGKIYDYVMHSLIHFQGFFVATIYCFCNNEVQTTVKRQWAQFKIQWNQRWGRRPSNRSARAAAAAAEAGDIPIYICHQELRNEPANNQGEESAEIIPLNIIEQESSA
# [3] = biological target: Sigma non-opioid intracellular receptor 1 (Homo sapiens, UniProt Q99720); assay: DRUGMATRIX: Sigma1 radioligand binding (ligand: [3H] Haloperidol); assay type: cell membranes, Jurkat, Membrane; settings: Not Active = under 50% inhibition at 10 µM; for Ki: read-out: Ki
# [4] = DRUGMATRIX: Purinergic P2X radioligand binding (ligand: [3H] alpha, beta-Methylene-ATP); assay type: cell membranes, Oryctolagus cuniculus, New Zealand albino, Urinary bladder, Membrane; settings: Not Active = under 50% inhibition at 10 µM
# Nitric oxide synthase 1 = Nitric oxide synthase 1 (Rattus norvegicus, UniProt P29476); assay type: tissue-based, Cerebellum; also: in other assays of this panel Not Active means under 50% inhibition at 10 µM
# Cytochrome P450 2C9 = Cytochrome P450 2C9 (Homo sapiens, UniProt P11712); settings: bti-tn-5b1-4; also: in other assays of this panel Not Active means under 50% inhibition at 10 µM
# Cytochrome P450 2C9, sequence (P11712 whole entry): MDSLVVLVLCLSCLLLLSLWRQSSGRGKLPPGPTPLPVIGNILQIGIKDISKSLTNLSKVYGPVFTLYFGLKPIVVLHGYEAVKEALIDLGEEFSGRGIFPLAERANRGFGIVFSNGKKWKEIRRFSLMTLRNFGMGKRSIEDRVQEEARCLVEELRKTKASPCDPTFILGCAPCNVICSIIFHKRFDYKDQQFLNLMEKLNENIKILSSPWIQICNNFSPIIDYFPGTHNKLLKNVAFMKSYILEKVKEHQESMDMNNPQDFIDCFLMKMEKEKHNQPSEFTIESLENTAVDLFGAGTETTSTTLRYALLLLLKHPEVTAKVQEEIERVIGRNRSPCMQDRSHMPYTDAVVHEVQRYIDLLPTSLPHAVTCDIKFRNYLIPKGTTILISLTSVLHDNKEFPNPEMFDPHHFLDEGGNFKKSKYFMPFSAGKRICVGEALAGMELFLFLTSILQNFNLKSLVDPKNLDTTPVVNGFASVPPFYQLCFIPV
# Nitric oxide synthase 1, sequence (P29476 whole entry): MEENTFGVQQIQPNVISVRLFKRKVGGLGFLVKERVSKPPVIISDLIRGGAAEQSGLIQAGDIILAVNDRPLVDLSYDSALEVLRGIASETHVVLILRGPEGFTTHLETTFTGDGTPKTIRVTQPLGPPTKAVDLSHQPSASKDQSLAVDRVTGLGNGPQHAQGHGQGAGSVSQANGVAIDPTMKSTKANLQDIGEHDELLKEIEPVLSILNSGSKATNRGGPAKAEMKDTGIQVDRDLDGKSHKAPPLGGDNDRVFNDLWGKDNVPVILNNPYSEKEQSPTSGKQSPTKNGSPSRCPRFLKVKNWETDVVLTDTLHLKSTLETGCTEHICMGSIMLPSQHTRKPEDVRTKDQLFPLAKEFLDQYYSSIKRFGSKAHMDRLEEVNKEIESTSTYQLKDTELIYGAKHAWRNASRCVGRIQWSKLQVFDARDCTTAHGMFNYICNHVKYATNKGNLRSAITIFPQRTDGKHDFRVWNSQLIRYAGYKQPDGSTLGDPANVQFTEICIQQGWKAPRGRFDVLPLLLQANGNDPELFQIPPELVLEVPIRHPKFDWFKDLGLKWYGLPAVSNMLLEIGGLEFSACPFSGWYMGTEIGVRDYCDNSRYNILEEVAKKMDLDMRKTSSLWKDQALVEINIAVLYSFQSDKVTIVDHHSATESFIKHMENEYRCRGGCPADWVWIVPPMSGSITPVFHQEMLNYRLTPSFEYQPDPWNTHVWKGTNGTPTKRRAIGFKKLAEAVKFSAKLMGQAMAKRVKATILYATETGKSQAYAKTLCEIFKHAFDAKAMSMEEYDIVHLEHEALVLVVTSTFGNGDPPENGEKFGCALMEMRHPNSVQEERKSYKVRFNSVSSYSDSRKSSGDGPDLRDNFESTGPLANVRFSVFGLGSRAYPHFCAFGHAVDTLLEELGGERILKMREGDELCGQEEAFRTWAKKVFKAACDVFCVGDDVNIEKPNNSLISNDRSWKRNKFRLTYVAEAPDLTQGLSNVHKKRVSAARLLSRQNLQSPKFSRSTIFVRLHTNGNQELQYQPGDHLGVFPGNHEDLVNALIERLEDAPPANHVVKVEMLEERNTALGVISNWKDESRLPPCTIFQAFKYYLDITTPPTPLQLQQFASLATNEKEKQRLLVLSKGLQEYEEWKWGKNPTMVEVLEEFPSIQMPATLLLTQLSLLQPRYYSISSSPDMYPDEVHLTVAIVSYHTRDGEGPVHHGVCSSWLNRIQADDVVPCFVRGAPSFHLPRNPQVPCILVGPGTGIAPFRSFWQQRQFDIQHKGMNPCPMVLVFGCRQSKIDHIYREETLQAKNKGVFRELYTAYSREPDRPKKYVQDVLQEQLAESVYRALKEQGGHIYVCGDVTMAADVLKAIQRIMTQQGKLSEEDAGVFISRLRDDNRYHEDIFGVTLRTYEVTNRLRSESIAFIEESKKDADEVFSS
# Sodium-dependent dopamine transporter, sequence (Q01959 whole entry): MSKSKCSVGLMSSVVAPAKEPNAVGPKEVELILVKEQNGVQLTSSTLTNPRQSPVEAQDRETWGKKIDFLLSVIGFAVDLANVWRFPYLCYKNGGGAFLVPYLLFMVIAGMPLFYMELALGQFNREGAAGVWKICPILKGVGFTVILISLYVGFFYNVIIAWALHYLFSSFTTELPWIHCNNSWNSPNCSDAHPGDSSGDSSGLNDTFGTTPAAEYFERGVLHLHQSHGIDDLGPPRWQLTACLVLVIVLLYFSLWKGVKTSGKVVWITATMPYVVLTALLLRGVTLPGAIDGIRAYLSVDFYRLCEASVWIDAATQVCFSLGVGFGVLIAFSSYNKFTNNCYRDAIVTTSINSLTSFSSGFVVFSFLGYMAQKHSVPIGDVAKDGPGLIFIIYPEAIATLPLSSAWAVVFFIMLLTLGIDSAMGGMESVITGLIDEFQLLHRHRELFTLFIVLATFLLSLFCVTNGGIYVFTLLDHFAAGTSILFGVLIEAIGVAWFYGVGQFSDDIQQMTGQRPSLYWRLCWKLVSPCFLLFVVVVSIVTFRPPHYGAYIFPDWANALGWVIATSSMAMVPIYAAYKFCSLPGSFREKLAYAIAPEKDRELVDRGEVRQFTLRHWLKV
# Sigma non-opioid intracellular receptor 1, sequence (Q99720 whole entry): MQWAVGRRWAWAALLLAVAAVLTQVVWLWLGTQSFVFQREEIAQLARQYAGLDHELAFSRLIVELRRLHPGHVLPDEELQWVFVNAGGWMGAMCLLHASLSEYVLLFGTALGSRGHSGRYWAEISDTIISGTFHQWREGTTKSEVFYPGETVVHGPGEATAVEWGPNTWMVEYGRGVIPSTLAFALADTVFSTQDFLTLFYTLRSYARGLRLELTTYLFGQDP
# Adenosine receptor A2a, sequence (P29274 whole entry): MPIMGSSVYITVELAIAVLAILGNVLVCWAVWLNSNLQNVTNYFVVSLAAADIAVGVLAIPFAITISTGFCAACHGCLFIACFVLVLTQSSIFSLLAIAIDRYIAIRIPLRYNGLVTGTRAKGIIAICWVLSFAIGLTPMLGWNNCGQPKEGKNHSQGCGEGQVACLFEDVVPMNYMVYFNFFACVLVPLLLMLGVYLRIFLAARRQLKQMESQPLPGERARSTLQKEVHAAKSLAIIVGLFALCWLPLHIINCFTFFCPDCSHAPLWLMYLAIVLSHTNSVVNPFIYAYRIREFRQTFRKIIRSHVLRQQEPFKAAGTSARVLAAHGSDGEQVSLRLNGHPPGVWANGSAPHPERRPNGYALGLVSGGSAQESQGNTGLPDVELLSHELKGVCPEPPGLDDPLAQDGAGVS
Compound,IC50 (Adenosine receptor A2a; read-out: IC50) [nM],Ki (Adenosine receptor A2a) [nM],IC50 [1],IC50 [2],Ki [2],IC50 (Calcitonin receptor),IC50 ([3]; jurkat),IC50 [4],Ki [4],IC50 (Nitric oxide synthase 1),IC50 (Cytochrome P450 2C9),Ki (Cytochrome P450 2C9),IC50 (Adenosine receptor A2a; hek293),IC50 ([3]; read-out: IC50) [nM],Ki [3] [nM]
COc1cc(N)nc2[nH]c(-c3ccc(F)cc3)c(-c3ccncc3)c12,1030,580,Not Active,Not Active,Not Active,Not Active,Not Active,Not Active,Not Active,Not Active,–,–,–,–,–
CNS(=O)(=O)Cc1ccc2[nH]cc(CCN(C)C)c2c1,–,–,Not Active,Not Active,Not Active,Not Active,Not Active,Not Active,Not Active,Not Active,Not Active,Not Active,Not Active,–,–
CCCc1nn(C)c2c(=O)[nH]c(-c3cc(S(=O)(=O)N4CCN(C)CC4)ccc3OCC)nc12,253,142,Not Active,Not Active,Not Active,Not Active,Not Active,Not Active,Not Active,Not Active,Not Active,Not Active,–,–,–
COc1ccc(/C=C/C(=O)Nc2ccccc2C(=O)O)cc1OC,–,–,Not Active,Not Active,Not Active,Not Active,Not Active,Not Active,Not Active,Not Active,Not Active,Not Active,Not Active,–,–
CCOC(N)=O,–,–,Not Active,Not Active,Not Active,Not Active,Not Active,Not Active,Not Active,Not Active,Not Active,Not Active,Not Active,–,–
CC(=O)Nc1nnc(S(N)(=O)=O)s1 [ACETAZOLAMIDE],–,–,Not Active,–,–,Not Active,Not Active,–,–,Not Active,Not Active,Not Active,Not Active,–,–
O=c1[nH]c2ccccc2n1CCCN1CCC(n2c(=O)[nH]c3cc(Cl)ccc32)CC1 [DOMPERIDONE],–,–,Not Active,–,–,Not Active,Not Active,–,–,Not Active,–,–,Not Active,–,–
CC1=C(CC(=O)O)c2cc(F)ccc2/C1=C\c1ccc(S(C)(=O)=O)cc1 [EXISULIND],–,–,Not Active,Not Active,Not Active,Not Active,Not Active,Not Active,Not Active,Not Active,Not Active,Not Active,Not Active,–,–
CC(C)OC(=O)C(C)(C)Oc1ccc(C(=O)c2ccc(Cl)cc2)cc1 [FENOFIBRATE],–,–,–,–,–,Not Active,Not Active,–,–,Not Active,Not Active,Not Active,Not Active,–,–
OCCN1CCN(CCCN2c3ccccc3Sc3ccc(C(F)(F)F)cc32)CC1 [FLUPHENAZINE],–,–,–,–,–,Not Active,–,–,–,Not Active,–,–,Not Active,20,8.57
CN1C2CCCC1CC(NC(=O)c1nn(C)c3ccccc13)C2 (stereo unspecified) [GRANISETRON],–,–,Not Active,–,–,Not Active,Not Active,–,–,Not Active,Not Active,Not Active,Not Active,–,–
Nc1nc2c(c(=O)[nH]1)N(C=O)C(CNc1ccc(C(=O)N[C@@H](CCC(=O)O)C(=O)O)cc1)CN2 (stereo partly specified) [LEUCOVORIN],–,–,Not Active,Not Active,Not Active,Not Active,Not Active,Not Active,Not Active,Not Active,Not Active,Not Active,Not Active,–,–
C[C@@H](O)[C@H]1C(=O)N2C(C(=O)O)=C(S[C@@H]3CN[C@H](C(=O)N(C)C)C3)[C@H](C)[C@H]12 [MEROPENEM],–,–,Not Active,Not Active,Not Active,Not Active,Not Active,Not Active,Not Active,Not Active,Not Active,Not Active,Not Active,–,–
CC[C@@H](CO)NC(=O)[C@@H]1C=C2c3cccc4c3c(cn4C)C[C@H]2N(C)C1 [METHYSERGIDE],–,–,Not Active,–,–,Not Active,–,–,–,Not Active,Not Active,Not Active,Not Active,–,–
CCN(CC)CC#CCOC(=O)C(O)(c1ccccc1)C1CCCCC1 (stereo unspecified) [OXYBUTYNIN],–,–,–,–,–,Not Active,–,–,–,Not Active,Not Active,Not Active,Not Active,24.2,10.2
O=P(O)(O)C(O)(Cc1cccnc1)P(=O)(O)O [RISEDRONIC ACID],–,–,Not Active,Not Active,Not Active,Not Active,Not Active,Not Active,Not Active,Not Active,Not Active,Not Active,Not Active,–,–
CN(CCOc1ccc(CC2SC(=O)NC2=O)cc1)c1ccccn1 (stereo unspecified) [ROSIGLITAZONE],–,–,Not Active,Not Active,Not Active,Not Active,Not Active,Not Active,Not Active,Not Active,Not Active,Not Active,Not Active,–,–
CO[C@H]1C[C@@H]2CC[C@@H](C)[C@@](O)(O2)C(=O)C(=O)N2CCCC[C@H]2C(=O)O[C@H]([C@H](C)C[C@@H]2CC[C@@H](O)[C@H](OC)C2)CC(=O)[C@H](C)/C=C(\C)[C@@H](O)[C@@H](OC)C(=O)[C@H](C)C[C@H](C)/C=C/C=C/C=C/1C [SIROLIMUS],–,–,Not Active,Not Active,Not Active,Not Active,Not Active,Not Active,Not Active,Not Active,–,–,Not Active,–,–
C[C@]12CC[C@H]3[C@@H](CCC4=CC(=O)CC[C@@]43C)[C@@H]1CC[C@@H]2O [TESTOSTERONE],–,–,Not Active,Not Active,Not Active,Not Active,Not Active,Not Active,Not Active,Not Active,–,–,Not Active,–,–
CCS(=O)(=O)CCn1c([N+](=O)[O-])cnc1C [TINIDAZOLE],–,–,Not Active,Not Active,Not Active,Not Active,Not Active,Not Active,Not Active,Not Active,–,–,Not Active,–,–
O=c1n(CCCN2CCN(c3cccc(Cl)c3)CC2)nc2ccccn12 [TRAZODONE],–,–,Not Active,–,–,Not Active,–,–,–,Not Active,Not Active,Not Active,Not Active,2200,926
COc1ccc(CN2CCNCC2)c(OC)c1OC [TRIMETAZIDINE],–,–,Not Active,Not Active,Not Active,Not Active,Not Active,Not Active,Not Active,Not Active,–,–,Not Active,–,–
COc1cc(C(=O)NS(=O)(=O)c2ccccc2C)ccc1Cc1cn(C)c2ccc(NC(=O)OC3CCCC3)cc12 [ZAFIRLUKAST],–,–,Not Active,Not Active,Not Active,Not Active,Not Active,Not Active,Not Active,Not Active,–,–,Not Active,–,–
